# Laboratory results as given in ChEMBL document CHEMBL3045830, “Differential effect of triazoles on mycelial growth and disease measurements of Monilinia fructicola isolates with reduced sensitivity to DMI fungicides” (Crop Prot, 2007).
# Active and inactive are the calls of the source. The rule behind the calls is not given here.
# Columns and labels:
# Assay type in all cases: functional, organism-based
# Monilinia fructicola [1] = assay: Fungicidal activity against Monilinia fructicola isolate GADL133.04 assessed as reduction in colony diameter after 5 days
# Monilinia fructicola [2] = assay: Fungicidal activity against Monilinia fructicola isolate SCDL71.01 infected peach fruit assessed as decrease in brown rot disease incidence at 0.112 ml/l applied 24 hr after inoculation after 5 days relative to untreated-control
# Monilinia fructicola [3] = assay: Fungicidal activity against Monilinia fructicola isolate GADL193.04 infected peach fruit assessed as decrease in sporulation area at 0.112 ml/l applied 24 hr prior to inoculation after 5 days relative to untreated-control
# Monilinia fructicola [4] = assay: Fungicidal activity against Monilinia fructicola isolate SCDL71.01 infected peach fruit assessed as decrease in brown rot disease incidence at 0.112 ml/l applied 24 hr prior to inoculation after 5 days relative to untreated-control
# Monilinia fructicola [5] = assay: Fungicidal activity against Monilinia fructicola isolate SCDL71.01 assessed as reduction in colony diameter after 5 days
# Monilinia fructicola [6] = assay: Fungicidal activity against Monilinia fructicola isolate GADL133.04 infected peach fruit assessed as decrease in brown rot disease incidence at 0.112 ml/l applied 24 hr after inoculation after 5 days relative to untreated-control
# Monilinia fructicola [7] = assay: Fungicidal activity against Monilinia fructicola isolate SCDL71.01 infected peach fruit assessed as decrease in sporulation area at 0.112 ml/l applied 24 hr prior to inoculation after 5 days relative to untreated-control
# Monilinia fructicola [8] = assay: Fungicidal activity against Monilinia fructicola isolate GADL133.04 infected peach fruit assessed as decrease in brown rot disease incidence at 0.112 ml/l applied 24 hr prior to inoculation after 5 days relative to untreated-control
# Monilinia fructicola [9] = assay: Fungicidal activity against Monilinia fructicola isolate GADL193.04 infected peach fruit assessed as decrease in brown rot disease incidence at 0.112 ml/l applied 24 hr after inoculation after 5 days relative to untreated-control
# Monilinia fructicola [10] = assay: Fungicidal activity against Monilinia fructicola isolate GADL193.04 infected peach fruit assessed as decrease in sporulation area at 0.112 ml/l applied 24 hr after inoculation after 5 days relative to untreated-control
# Monilinia fructicola [11] = assay: Fungicidal activity against Monilinia fructicola isolate GADL193.04 infected peach fruit assessed as decrease in brown rot disease incidence at 0.112 ml/l applied 24 hr prior to inoculation after 5 days relative to untreated-control
# Monilinia fructicola [12] = assay: Fungicidal activity against Monilinia fructicola isolate SCDL71.01 infected peach fruit assessed as decrease in sporulation area at 0.112 ml/l applied 24 hr after inoculation after 5 days relative to untreated-control
# Monilinia fructicola [13] = assay: Fungicidal activity against Monilinia fructicola isolate GADL193.04 assessed as reduction in colony diameter after 5 days
# Monilinia fructicola [14] = assay: Fungicidal activity against Monilinia fructicola isolate GADL133.04 infected peach fruit assessed as decrease in sporulation area at 0.112 ml/l applied 24 hr prior to inoculation after 5 days relative to untreated-control
# Monilinia fructicola [15] = assay: Fungicidal activity against Monilinia fructicola isolate GADL133.04 infected peach fruit assessed as decrease in sporulation area at 0.112 ml/l applied 24 hr after inoculation after 5 days relative to untreated-control
# Monilinia fructicola [16] = assay: Fungicidal activity against Monilinia fructicola isolate GADL133.04 infected peach fruit assessed as decrease in brown rot disease incidence at 0.131 ml/l applied 24 hr after inoculation after 5 days relative to untreated-control
# Monilinia fructicola [17] = assay: Fungicidal activity against Monilinia fructicola isolate GADL133.04 infected peach fruit assessed as decrease in sporulation area at 0.131 ml/l applied 24 hr prior to inoculation after 5 days relative to untreated-control
# Monilinia fructicola [18] = assay: Fungicidal activity against Monilinia fructicola isolate SCDL71.01 infected peach fruit assessed as decrease in brown rot disease incidence at 0.131 ml/l applied 24 hr prior to inoculation after 5 days relative to untreated-control
# Monilinia fructicola [19] = assay: Fungicidal activity against Monilinia fructicola isolate SCDL71.01 infected peach fruit assessed as decrease in brown rot disease incidence at 0.131 ml/l applied 24 hr after inoculation after 5 days relative to untreated-control
# Monilinia fructicola [20] = assay: Fungicidal activity against Monilinia fructicola isolate GADL193.04 infected peach fruit assessed as decrease in brown rot disease incidence at 0.131 ml/l applied 24 hr prior to inoculation after 5 days relative to untreated-control
# Monilinia fructicola [21] = assay: Fungicidal activity against Monilinia fructicola isolate GADL193.04 infected peach fruit assessed as decrease in brown rot disease incidence at 0.131 ml/l applied 24 hr after inoculation after 5 days relative to untreated-control
# Monilinia fructicola [22] = assay: Fungicidal activity against Monilinia fructicola isolate GADL133.04 infected peach fruit assessed as decrease in brown rot disease incidence at 0.131 ml/l applied 24 hr prior to inoculation after 5 days relative to untreated-control
# Monilinia fructicola [23] = assay: Fungicidal activity against Monilinia fructicola isolate SCDL71.01 infected peach fruit assessed as decrease in sporulation area at 0.131 ml/l applied 24 hr after inoculation after 5 days relative to untreated-control
# Monilinia fructicola [24] = assay: Fungicidal activity against Monilinia fructicola isolate GADL193.04 infected peach fruit assessed as decrease in sporulation area at 0.131 ml/l applied 24 hr prior to inoculation after 5 days relative to untreated-control
# Monilinia fructicola [25] = assay: Fungicidal activity against Monilinia fructicola isolate SCDL71.01 infected peach fruit assessed as decrease in sporulation area at 0.131 ml/l applied 24 hr prior to inoculation after 5 days relative to untreated-control
# Monilinia fructicola [26] = assay: Fungicidal activity against Monilinia fructicola isolate GADL193.04 infected peach fruit assessed as decrease in sporulation area at 0.131 ml/l applied 24 hr after inoculation after 5 days relative to untreated-control
# Monilinia fructicola [27] = assay: Fungicidal activity against Monilinia fructicola isolate GADL133.04 infected peach fruit assessed as decrease in sporulation area at 0.131 ml/l applied 24 hr after inoculation after 5 days relative to untreated-control
# Monilinia fructicola [28] = assay: Fungicidal activity against Monilinia fructicola isolate GADL193.04 infected peach fruit assessed as decrease in sporulation area at 0.135 ml/l applied 24 hr after inoculation after 5 days relative to untreated-control
# Monilinia fructicola [29] = assay: Fungicidal activity against Monilinia fructicola isolate GADL133.04 infected peach fruit assessed as decrease in sporulation area at 0.135 ml/l applied 24 hr after inoculation after 5 days relative to untreated-control
# Monilinia fructicola [30] = assay: Fungicidal activity against Monilinia fructicola isolate GADL193.04 infected peach fruit assessed as decrease in brown rot disease incidence at 0.135 ml/l applied 24 hr after inoculation after 5 days relative to untreated-control
# Monilinia fructicola [31] = assay: Fungicidal activity against Monilinia fructicola isolate GADL133.04 infected peach fruit assessed as decrease in sporulation area at 0.135 ml/l applied 24 hr prior to inoculation after 5 days relative to untreated-control
# Monilinia fructicola [32] = assay: Fungicidal activity against Monilinia fructicola isolate SCDL71.01 infected peach fruit assessed as decrease in sporulation area at 0.135 ml/l applied 24 hr prior to inoculation after 5 days relative to untreated-control
# Monilinia fructicola [33] = assay: Fungicidal activity against Monilinia fructicola isolate GADL133.04 infected peach fruit assessed as decrease in brown rot disease incidence at 0.135 ml/l applied 24 hr prior to inoculation after 5 days relative to untreated-control
# Monilinia fructicola [34] = assay: Fungicidal activity against Monilinia fructicola isolate SCDL71.01 infected peach fruit assessed as decrease in sporulation area at 0.135 ml/l applied 24 hr after inoculation after 5 days relative to untreated-control
# Monilinia fructicola [35] = assay: Fungicidal activity against Monilinia fructicola isolate GADL193.04 infected peach fruit assessed as decrease in sporulation area at 0.135 ml/l applied 24 hr prior to inoculation after 5 days relative to untreated-control
# Monilinia fructicola [36] = assay: Fungicidal activity against Monilinia fructicola isolate GADL193.04 infected peach fruit assessed as decrease in brown rot disease incidence at 0.135 ml/l applied 24 hr prior to inoculation after 5 days relative to untreated-control
# Monilinia fructicola [37] = assay: Fungicidal activity against Monilinia fructicola isolate SCDL71.01 infected peach fruit assessed as decrease in brown rot disease incidence at 0.135 ml/l applied 24 hr prior to inoculation after 5 days relative to untreated-control
# Monilinia fructicola [38] = assay: Fungicidal activity against Monilinia fructicola isolate GADL133.04 infected peach fruit assessed as decrease in brown rot disease incidence at 0.135 ml/l applied 24 hr after inoculation after 5 days relative to untreated-control
# Monilinia fructicola [39] = assay: Fungicidal activity against Monilinia fructicola isolate SCDL71.01 infected peach fruit assessed as decrease in brown rot disease incidence at 0.135 ml/l applied 24 hr after inoculation after 5 days relative to untreated-control
smiles,measurement,setting,value
N#CC(CCc1ccc(Cl)cc1)(Cn1cncn1)c1ccccc1 (stereo not given) [FENBUCONAZOLE],Activity,Monilinia fructicola [1],Active
same,Activity,Monilinia fructicola [2],Active
same,Activity,Monilinia fructicola [3],Active
same,Activity,Monilinia fructicola [4],Active
same,EC50,Monilinia fructicola [5],0.019 uL/ml
same,Activity,Monilinia fructicola [6],Active
same,Activity,Monilinia fructicola [7],Active
same,Activity,Monilinia fructicola [8],Active
same,Activity,Monilinia fructicola [9],Active
same,Activity,Monilinia fructicola [10],Active
same,Activity,Monilinia fructicola [11],Active
same,Activity,Monilinia fructicola [12],Active
same,Activity,Monilinia fructicola [13],Active
same,Activity,Monilinia fructicola [14],Active
same,Activity,Monilinia fructicola [15],Active
CCCC1COC(Cn2cncn2)(c2ccc(Cl)cc2Cl)O1 (stereo not given) [PROPICONAZOLE],Activity,Monilinia fructicola [1],Active
same,EC50,Monilinia fructicola [5],0.023 uL/ml
same,Activity,Monilinia fructicola [16],Active
same,Activity,Monilinia fructicola [17],Active
same,Activity,Monilinia fructicola [18],Active
same,Activity,Monilinia fructicola [19],Active
same,Activity,Monilinia fructicola [20],Active
same,Activity,Monilinia fructicola [21],Active
same,Activity,Monilinia fructicola [22],Active
same,Activity,Monilinia fructicola [23],Active
same,Activity,Monilinia fructicola [24],Active
same,Activity,Monilinia fructicola [13],Active
same,Activity,Monilinia fructicola [25],Active
same,Activity,Monilinia fructicola [26],Active
same,Activity,Monilinia fructicola [27],Active
CC(C)(C)C(O)(CCc1ccc(Cl)cc1)Cn1cncn1 (stereo not given) [TEBUCONAZOLE],Activity,Monilinia fructicola [1],Active
same,EC50,Monilinia fructicola [5],0.018 uL/ml
same,Activity,Monilinia fructicola [28],Active
same,Activity,Monilinia fructicola [29],Active
same,Activity,Monilinia fructicola [30],Active
same,Activity,Monilinia fructicola [31],Active
same,Activity,Monilinia fructicola [32],Active
same,Activity,Monilinia fructicola [33],Active
same,Activity,Monilinia fructicola [34],Active
same,Activity,Monilinia fructicola [13],Active
same,Activity,Monilinia fructicola [35],Active
same,Activity,Monilinia fructicola [36],Active
same,Activity,Monilinia fructicola [37],Active
same,Activity,Monilinia fructicola [38],Active
same,Activity,Monilinia fructicola [39],Active
